# Source: patent US20080194546A1, “Pyrido-, Pyrazo- and Pyrimido-Pyrimidine Derivatives as mTOR Inhibitors” (KuDOS Pharmaceuticals Limited, priority 2005, published 2008)
# Columns and labels:
# mTOR = target: T1, mTOR (Homo sapiens, UniProt P42345); assay: Biological Assay: mTOR enzyme activity, mTOR immunoprecipitated from HeLa cell cytoplasmic extract, recombinant PHAS-1 as substrate; assay type: biochemical; conditions: Biological Assay; for IC50: upper bounds, read-out: IC50 values against mTOR
# T1 construct: mTOR protein was isolated from HeLa cell cytoplasmic extract by immunoprecipitation; endogenous in cells; host or cells: HeLa cell cytoplasmic extract (immunoprecipitate)
# Excerpt: For mTOR enzyme activity assays, mTOR protein was isolated from HeLa cell cytoplasmic extract by immunoprecipitation, and activity determined essentially as described previously using recombinant PHAS-1 as a substrate (ref. 21).
# T47D cells = assay: Cell Proliferation Assay (GI50), sulforhodamine B (SRB) assay; assay type: cell-based; conditions: for GI50: Homo sapiens, 120 hours, SRB
# Method: Cell growth was assessed using the sulforhodamine B (SRB) assay (A). T47D (ECACC, 85102201) cells were routinely passaged in RPMI (Invitrogen, 42401018) plus 10% foetal calf serum (FCS), 1% L-glutamine (Gibco BRL, 25030) to a confluence not greater than 80%. To undertake the assay, T47D cells were seeded at 2.5×10^3 cells/well in […] RPMI plus 10% foetal calf serum, 1% L-glutamine in 96 well plates (Costar, 3904) and incubated at 37° C. (+5% CO2) in a humidified incubator. Once the cells had fully adhered (typically following 4-5 hours incubation) the plate was removed from the incubator and 10 μL of the diluent added to the control wells (A1-12 and B1-12). Compound was prepared in a six point semi-log dilution at 10× the final concentration required e.g. for a 6 point range of 30 μM to 100 nM in semi-log steps dilution started at 300 μM in stock plate. Dosing was completed by addition of 10 μL of compound at highest concentration to C1-12 through to the lowest concentration in H1-12. The plates were then incubated for 120 hours prior to SRB analysis.
# Upon completion of incubation, media was removed and the cells fixed with […] of ice cold 10% (w/v) trichloroacetic acid. The plates were incubated at 4° C. for 20 minutes and then washed four times with water. Each well of cells was then stained with 100 μl of 0.4% (w/v) SRB (Sulforhodamine B, Sigma, Poole, Dorset, UK, Catalogue number S-9012) in 1% acetic acid for 20 minutes before washing four times with 1% acetic acid. Plates were then dried for 2 hours at room temperature. The dye from the stained cells was solubilized by the addition of 100 μl of 10 mM Tris Base into each well. Plates were gently shaken and left at room temperature for 30 minutes before measuring the optical density at 564 nm on a Microquant microtiter plate reader. The concentration of inhibitor eliciting a 50% reduction in growth (GI50) was determined by analysis of staining intensity of the treated cells as a percentage of the vehicle control wells using Excelfit software.
# (A) Skehan, P., Storung, R., Scudiero, R., Monks, A., McMahon, J., Vistica, D., Warren, J. T., Bokesch, H., Kenny, S. and Boyd, M. R. (1990) New […] cytotoxicity assay for anticancer-drug screening. J. Natl. Cancer Inst. 82, 1107-1112.
# [1] = test system: phosphorylation of Serine 473 in Akt in MDA-MB-468 cells; assay: In Vitro phospho-Ser473 Akt Assay (Acumen Explorer); assay type: cell-based; conditions: Homo sapiens, MDA-MB-468, read-out: IC50 (phospho-Ser473 Akt assay)
SMILES,IC50 (mTOR),GI50 (T47D cells; upper bounds),GI50 (T47D cells),also measured
COc1ccc(-c2ccc3c(N4CCOCC4)nc(N4C[C@@H](C)O[C@@H](C)C4)nc3n2)cc1CNCc1ccc2c(c1)OCO2 [Example 8bg],< 100 nM,< 300 nM,–,–
COc1ccc(-c2ccc3c(N4CCOCC4)nc(N4C[C@@H](C)O[C@@H](C)C4)nc3n2)cc1CNCc1cccc([N+](=O)[O-])c1 [Example 8at],< 1000 nM,< 300 nM,–,–
CCN(CC)CCCNCc1cc(-c2ccc3c(N4CCOCC4)nc(N4C[C@@H](C)O[C@@H](C)C4)nc3n2)ccc1OC [Example 8h],< 100 nM,–,< 1000 nM,–
C[C@H]1CCCCN1c1nc(N2CCOCC2)c2ccc(-c3ccc(Cl)cc3)nc2n1 [Example 1g],< 100 nM,< 300 nM,–,–
COc1ccc(-c2ccc3c(N4CCOCC4)nc(N4C[C@@H](C)O[C@@H](C)C4)nc3n2)cc1CNCC(C)C [Example 8u],< 1000 nM,< 300 nM,–,–
COc1ccc(-c2ccc3c(N4CCOCC4)nc(N4C[C@@H](C)O[C@@H](C)C4)nc3n2)cc1CNC(Cc1ccc(O)cc1)C(=O)O (stereo partly shown) [Example 8ar],< 100 nM,< 300 nM,–,–
COc1ccc(-c2ccc3c(N4CCOCC4)nc(N4C[C@@H](C)O[C@@H](C)C4)nc3n2)cc1CNc1ccc(N2CCOCC2)cc1 [Example 8ay],< 1000 nM,< 300 nM,–,–
COc1ccc(-c2ccc3c(N4CCOCC4)nc(N4C[C@@H](C)O[C@@H](C)C4)nc3n2)cc1CNC1CCCCCCC1 [Example 8n],< 100 nM,–,< 1000 nM,–
CCSCCNCc1cc(-c2ccc3c(N4CCOCC4)nc(N4C[C@@H](C)O[C@@H](C)C4)nc3n2)ccc1OC [Example 8ak],< 100 nM,< 300 nM,–,–
COc1ccc(-c2ccc3c(N4CCOCC4)nc(N4C[C@@H](C)O[C@@H](C)C4)nc3n2)cc1CN[C@H](CO)CCSC [Example 8bd],< 1000 nM,< 300 nM,–,–
COc1ccc(-c2ccc3c(N4CCOCC4)nc(N4C[C@@H](C)O[C@@H](C)C4)nc3n2)cc1CNC1CCCC(C)C1C (stereo partly shown) [Example 8ag],< 100 nM,< 300 nM,–,–
C[C@@H]1CN(c2nc(N3CCOCC3)c3ccc(-c4ccco4)nc3n2)C[C@H](C)O1 [Example 1r],< 1000 nM,–,232 nM,–
COc1ccc(-c2ccc3c(N4CCOCC4)nc(N4C[C@@H](C)O[C@@H](C)C4)nc3n2)cc1CNC(c1ccccc1)c1ccccc1 [Example 8az],< 1000 nM,< 300 nM,–,–
COc1ccc(-c2ccc3c(N4CCOCC4)nc(N4C[C@@H](C)O[C@@H](C)C4)nc3n2)cc1CNCCCCCNC(=O)OC(C)(C)C [Example 8as],< 100 nM,< 300 nM,–,–
"COc1ccc(-c2ccc3c(N4CCOCC4)nc(N4CCOC[C@@H]4C)nc3n2)cc1CO [Comparative Example 1a, reference compound]",–,–,–,IC50 of Comparative Examples compared to the corresponding Examples (mTOR; comparison in words): IC50 Comparative Example 1a>IC50 Example 11a; GI50 of Comparative Examples compared to the corresponding Examples (T47D cells; comparison in words): GI50 Comparative Example 1a>GI50 Example 11a
COc1ccc(-c2ccc3c(N4CCOCC4)nc(N4C[C@@H](C)O[C@@H](C)C4)nc3n2)cc1CNCCCc1ccccc1 [Example 8bc],< 100 nM,< 300 nM,–,–
COC(=O)[C@H](NCc1cc(-c2ccc3c(N4CCOCC4)nc(N4C[C@@H](C)O[C@@H](C)C4)nc3n2)ccc1OC)c1ccccc1 [Example 8ao],< 1000 nM,< 300 nM,–,–
COc1ccc(-c2ccc3c(N4CCOCC4)nc(N4C[C@@H](C)O[C@@H](C)C4)nc3n2)cc1CNCc1ccc(F)cc1 [Example 8ah],< 100 nM,< 300 nM,–,–
COc1ccc(-c2ccc3c(N4CCOCC4)nc(N4C[C@@H](C)O[C@@H](C)C4)nc3n2)cc1CNCCc1cnc[nH]1 [Example 8c],< 100 nM,–,< 1000 nM,–

SMILES,IC50 (mTOR),GI50 (T47D cells; upper bounds),GI50 (T47D cells),also measured
COc1ccc(-c2ccc3c(N4CCOCC4)nc(N4C[C@@H](C)O[C@@H](C)C4)nc3n2)cc1CNC(=S)N1CCCCC1 [Example 8am],< 1000 nM,< 300 nM,–,–
CCOC(=O)C1CCCCC1NCc1cc(-c2ccc3c(N4CCOCC4)nc(N4C[C@@H](C)O[C@@H](C)C4)nc3n2)ccc1OC (stereo partly shown) [Example 8ac],< 100 nM,–,< 1000 nM,–
COc1ccc(-c2ccc3c(N4CCOCC4)nc(N4C[C@@H](C)O[C@@H](C)C4)nc3n2)cc1CNc1ccc(OCc2ccccc2)cc1 [Example 8ba],< 1000 nM,< 300 nM,–,–
COc1ccc(-c2ccc3c(N4CCOCC4)nc(N4C[C@@H](C)O[C@@H](C)C4)nc3n2)cc1CNCC1CCCCC1O (stereo partly shown) [Example 8aa],< 100 nM,–,< 1000 nM,–
COc1ccc(CCNCc2cc(-c3ccc4c(N5CCOCC5)nc(N5C[C@@H](C)O[C@@H](C)C5)nc4n3)ccc2OC)cc1 [Example 8e],< 100 nM,–,< 1000 nM,–
COc1ccc(-c2ccc3c(N4CCOCC4)nc(N4C[C@@H](C)O[C@@H](C)C4)nc3n2)cc1CNC1CCC(C)CC1 (stereo partly shown) [Example 8p],< 1000 nM,–,< 1000 nM,–
COc1ccc(-c2ccc3c(N4CCOCC4)nc(N4C[C@@H](C)O[C@@H](C)C4)nc3n2)cc1CNC1CCc2ccccc21 (stereo partly shown) [Example 8av],< 100 nM,< 300 nM,–,–
COCCNCc1cc(-c2ccc3c(N4CCOCC4)nc(N4C[C@@H](C)O[C@@H](C)C4)nc3n2)ccc1OC [Example 8v],< 1000 nM,–,< 1000 nM,–
COc1ccc(-c2ccc3c(N4CCOCC4)nc(N4C[C@@H](C)O[C@@H](C)C4)nc3n2)cc1CNCc1cccc(OC)c1OC [Example 8z],< 10000 nM,–,< 1000 nM,–
COc1ccc(-c2ccc3c(N4CCOCC4)nc(N4C[C@@H](C)O[C@@H](C)C4)nc3n2)cc1CNC(C)CC(C)C (stereo partly shown) [Example 8t],< 1000 nM,< 300 nM,–,–
C[C@@H]1CN(c2nc(N3CCOC[C@@H]3C)c3ccc(-c4ccsc4)nc3n2)C[C@H](C)O1 [Example 11k],–,–,–,IC50 [1]: 83 nM; GI50 (T47D cells; single values): 32 nM
C=CCOC(=O)[C@H](CC(C)C)NCc1cc(-c2ccc3c(N4CCOCC4)nc(N4C[C@@H](C)O[C@@H](C)C4)nc3n2)ccc1OC [Example 8af],< 1000 nM,< 300 nM,–,–
COc1ccc(-c2ccc3c(N4CCOCC4)nc(N4C[C@@H](C)O[C@@H](C)C4)nc3n2)cc1CNC(C)C [Example 8r],< 1000 nM,< 300 nM,–,–
COc1ccc(-c2ccc3c(N4CCOCC4)nc(N4C[C@@H](C)O[C@@H](C)C4)nc3n2)cc1CNCCSCc1ccc(CN(C)C)o1 [Example 8ae],< 1000 nM,< 300 nM,–,–
COc1ccc(-c2ccc3c(N4CCOCC4)nc(N4C[C@@H](C)O[C@@H](C)C4)nc3n2)cc1CNC(C)CO (stereo partly shown) [Example 8aq],< 100 nM,< 300 nM,–,–
COc1ccc(-c2ccc3c(N4CCOCC4)nc(N4C[C@@H](C)O[C@@H](C)C4)nc3n2)cc1CNC1CCCCC1C (stereo partly shown) [Example 8w],< 1000 nM,–,< 1000 nM,–
COc1ccc(-c2ccc3c(N4CCOCC4)nc(N4C[C@@H](C)O[C@@H](C)C4)nc3n2)cc1CNC1CCOCC1 [Example 8i],< 100 nM,< 300 nM,–,–
COc1ccc(-c2ccc3c(N4CCOCC4)nc(N4C[C@@H](C)O[C@@H](C)C4)nc3n2)cc1CNCCc1cccs1 [Example 8an],< 100 nM,< 300 nM,–,–
COc1ccc(-c2ccc3c(N4CCOCC4)nc(N4C[C@@H](C)O[C@@H](C)C4)nc3n2)cc1CNCCC(C)C [Example 8m],< 100 nM,–,< 1000 nM,–
